Measurements as given in US9557333B2, “Methods of treating gastrointestinal sarcoma patients depending on their sB7H6 serum level” (INSTITUT GUSTAVE ROUSSY, priority 2012, dated 2017).

Experiments:
sB7H6 = assay: Serum sB7H6 measured by ELISA longitudinally during IM treatment of GIST patients; assay type: in vivo, human
Protocol: 49 GIST patients were treated with imatinib (IM) from May 1994 until October 2010 (BFR14 cohort). Patients' samples were provided by the Gustave Roussy Institute (Villejuif, France) and the Centre Léon Bérard (Lyon). Sera were drained from blood drawn during control visits. Clinical responses were assessed by computed tomography (CT) scan and the responses were classified according to the RECIST criteria.
(§1) sB7H6 and sMIC were assessed from the sera of patients by the ELISA method.
Soluble B7-H6 detection was assessed from sera of patients by the ELISA method: 17B1.3 mAbs was coated at 5 μg/ml in 0.1 M NaHCO3 solution overnight at 4° C. in 96-well Nunc-Immuno™ plates (Thermo Scientific). Blocking solution (PBS supplemented with 3% BSA) was then added overnight at 4° C. After discarding this solution, serial dilutions of sB7-H6 were incubated for 3 hours at room temperature. Then biotin-conjugated 9G9.2 was added to each well (1 μg/ml in PBS supplemented with 1% BSA) for 1 hour at room temperature. Anti-biotin HRP (Sigma-Aldrich) was then added for 1 hour at room temperature. Finally, BD Optia TMB substrate (BD Biosciences) was used to reveal the staining and left to incubate for 15-30 minutes at room temperature. The reaction was stopped with 1 M HCl and the optic density (OD) at 450 nm was read with Apollo LB 911 from Berthold.

sMIC = assay: Serum sMIC measured by ELISA longitudinally during IM treatment of GIST patients; assay type: in vivo, human; settings: followed during treatment
Protocol: 49 GIST patients were treated with imatinib (IM) from May 1994 until October 2010 (BFR14 cohort). Patients' samples were provided by the Gustave Roussy Institute (Villejuif, France) and the Centre Léon Bérard (Lyon). Sera were drained from blood drawn during control visits. Clinical responses were assessed by computed tomography (CT) scan and the responses were classified according to the RECIST criteria. GIST tumor samples were obtained following surgery carried out at the Gustave Roussy Institute (Villejuif, France).
as §1

## Cc1ccc(NC(=O)c2ccc(CN3CCN(C)CC3)cc2)cc1Nc1nccc(-c2cccnc2)n1 [IM, imatinib]
sB7H6; after 1 year of treatment
  levels of sB7H6 in sera after 1 year of IM treatment: not detected
sB7H6; followed with time of treatment
  levels of sB7H6 in sera during IM treatment: decreased with the time of treatment
sMIC
  levels of sMIC in sera following IM treatment: tend to decrease
